Experiment [1] has as its target G-protein coupled receptor 55 (Homo sapiens, UniProt Q9Y2T6). As to the kind of experiment: GPR55 antagonists, SAR follow-up, counter-screen for GPR35 antagonist project, imaging, image-based (AID 2397). It counts as functional.
Experiment [2] has as its target T1, Nucleotide-binding oligomerization domain-containing protein 1 (Homo sapiens, UniProt Q9Y239).
T1 sequence (Q9Y239 whole entry): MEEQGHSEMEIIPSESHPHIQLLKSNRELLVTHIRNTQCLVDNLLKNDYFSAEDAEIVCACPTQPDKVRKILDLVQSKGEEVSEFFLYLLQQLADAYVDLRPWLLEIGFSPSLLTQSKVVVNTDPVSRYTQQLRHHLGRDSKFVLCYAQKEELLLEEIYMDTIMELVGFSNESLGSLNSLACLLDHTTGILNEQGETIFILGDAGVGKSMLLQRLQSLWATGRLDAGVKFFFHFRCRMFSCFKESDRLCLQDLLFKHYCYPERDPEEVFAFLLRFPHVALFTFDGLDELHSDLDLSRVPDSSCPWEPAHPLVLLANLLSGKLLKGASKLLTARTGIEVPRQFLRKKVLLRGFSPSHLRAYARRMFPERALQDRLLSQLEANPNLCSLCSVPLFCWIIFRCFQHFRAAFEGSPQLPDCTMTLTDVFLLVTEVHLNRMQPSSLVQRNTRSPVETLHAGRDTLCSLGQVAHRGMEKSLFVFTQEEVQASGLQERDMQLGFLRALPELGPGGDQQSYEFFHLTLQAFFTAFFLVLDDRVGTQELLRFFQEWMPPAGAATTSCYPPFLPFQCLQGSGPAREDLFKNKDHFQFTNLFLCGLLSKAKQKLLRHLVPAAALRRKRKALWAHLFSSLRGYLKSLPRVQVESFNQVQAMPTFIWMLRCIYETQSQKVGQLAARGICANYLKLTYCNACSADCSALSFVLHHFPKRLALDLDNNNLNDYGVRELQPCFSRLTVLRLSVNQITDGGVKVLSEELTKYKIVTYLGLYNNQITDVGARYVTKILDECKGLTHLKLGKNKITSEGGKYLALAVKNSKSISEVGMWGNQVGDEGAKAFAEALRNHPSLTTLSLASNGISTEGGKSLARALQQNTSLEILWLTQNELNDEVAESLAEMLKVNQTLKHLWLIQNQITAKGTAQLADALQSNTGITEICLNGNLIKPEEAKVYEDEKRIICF
As to the kind of experiment: SAR analysis of NF-kappaB dependent luciferase using DAP as an inducer - Set 2. [Related pubchem assays (depositor defined):AID1566, AID1575, AID1578, AID1579, AID1849, AID1852, AID2264]. The format is functional.

The target in experiment [3] is T2, Interleukin-8 (Homo sapiens, UniProt P10145).
T2 sequence (P10145 whole entry): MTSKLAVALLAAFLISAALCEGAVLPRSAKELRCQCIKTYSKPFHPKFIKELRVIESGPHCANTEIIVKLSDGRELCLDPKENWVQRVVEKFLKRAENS
Briefly: SAR analysis of Tumor necrosis factor alpha (TNF-alpha) induced IL-8 secretion in MCF-7/NOD1 cells - Set 2. [Related pubchem assays (depositor defined):AID1575, AID2250, AID2260]. The format is functional, cell-based.

In experiment [4] the target is T2, Interleukin-8. Briefly: SAR analysis of GM-Tri-DAP induced IL-8 secretion in MCF-7/NOD1 cells - Set 2. [Related pubchem assays (depositor defined):AID1575, AID1578, AID2333]. The format is functional, cell-based.
The target of experiment [5] is T3, Nucleotide-binding oligomerization domain-containing protein 2 (Homo sapiens, UniProt Q9HC29). As to the kind of experiment: NOD2 inhibitors, SAR follow-up, set 2 (AID 2475). It counts as functional.
T3 sequence (Q9HC29 whole entry, the tested form may be a part): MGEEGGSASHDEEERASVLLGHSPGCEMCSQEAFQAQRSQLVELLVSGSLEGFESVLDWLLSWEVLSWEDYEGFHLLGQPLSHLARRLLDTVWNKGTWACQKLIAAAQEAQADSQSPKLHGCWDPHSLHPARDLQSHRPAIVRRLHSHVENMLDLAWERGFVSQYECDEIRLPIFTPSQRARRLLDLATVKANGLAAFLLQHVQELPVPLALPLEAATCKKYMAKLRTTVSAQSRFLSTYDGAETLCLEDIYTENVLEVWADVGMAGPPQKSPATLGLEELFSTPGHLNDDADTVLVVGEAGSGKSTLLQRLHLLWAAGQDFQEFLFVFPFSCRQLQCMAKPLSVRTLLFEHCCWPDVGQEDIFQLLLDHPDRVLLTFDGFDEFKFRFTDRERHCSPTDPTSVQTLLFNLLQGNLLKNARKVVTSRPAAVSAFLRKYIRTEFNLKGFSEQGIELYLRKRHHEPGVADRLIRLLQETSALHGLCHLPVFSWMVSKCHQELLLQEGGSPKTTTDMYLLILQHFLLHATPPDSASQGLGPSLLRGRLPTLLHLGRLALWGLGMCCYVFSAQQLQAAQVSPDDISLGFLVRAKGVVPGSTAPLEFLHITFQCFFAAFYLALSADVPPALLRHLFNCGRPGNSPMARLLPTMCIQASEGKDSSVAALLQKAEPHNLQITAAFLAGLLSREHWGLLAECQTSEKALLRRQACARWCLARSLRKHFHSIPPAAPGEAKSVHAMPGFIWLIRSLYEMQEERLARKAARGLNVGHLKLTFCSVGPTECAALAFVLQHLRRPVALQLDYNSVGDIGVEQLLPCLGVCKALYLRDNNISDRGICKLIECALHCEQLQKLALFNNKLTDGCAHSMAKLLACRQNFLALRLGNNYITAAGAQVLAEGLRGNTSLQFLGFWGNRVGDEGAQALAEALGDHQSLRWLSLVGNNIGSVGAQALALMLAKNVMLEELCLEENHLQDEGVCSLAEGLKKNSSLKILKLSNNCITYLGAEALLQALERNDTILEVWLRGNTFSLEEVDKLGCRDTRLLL
Experiment [6] concerns HEK293. Briefly: SAR analysis of compounds that are cytotoxic to HEK293 - Set 2. [Related pubchem assays (depositor defined):AID1575, AID1578, AID1849, AID2001, AID2333, AID2334, AID2335, AID2337, AID2800]. It counts as functional, cell-based. The following applies: Homo sapiens.
Experiment [7] deals with T1, Nucleotide-binding oligomerization domain-containing protein 1. Briefly: SAR analysis of compounds that inhibit NOD1 - Set 2. [Related pubchem assays (depositor defined):AID1566, AID1575, AID1578, AID1849, AID1852, AID2333, AID2335, AID2798]. The format is functional.
Experiment [8] shares this target. Briefly: SAR analysis of compounds that inhibit NOD1 - Set 3. [Related pubchem assays (depositor defined):AID1566, AID1575, AID1578, AID1849, AID1852, AID2333, AID2335, AID2466]. It counts as functional.
The target in experiment [9] is Tumor necrosis factor (Homo sapiens, UniProt P01375). As to the kind of experiment: TNFa-triggered NF-kB activation inhibitors, SAR follow-up, cell-based, set 3 (AID 2801). The format is functional.
Tumor necrosis factor, sequence (P01375 whole entry): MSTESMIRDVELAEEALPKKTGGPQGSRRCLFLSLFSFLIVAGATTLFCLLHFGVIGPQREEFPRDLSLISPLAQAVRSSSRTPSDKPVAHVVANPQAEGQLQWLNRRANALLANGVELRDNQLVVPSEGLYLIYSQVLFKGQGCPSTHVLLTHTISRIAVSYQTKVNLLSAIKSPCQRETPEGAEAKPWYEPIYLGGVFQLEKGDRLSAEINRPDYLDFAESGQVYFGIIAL
In experiment [10] the test system is HEK293. Briefly: SAR analysis of compounds that are cytotoxic to HEK293 - Set 3. [Related pubchem assays (depositor defined):AID1575, AID1578, AID1848, AID1849, AID2001, AID2333, AID2334, AID2335, AID2337, AID2469]. The format is functional, cell-based. The following applies: Homo sapiens.
Experiment [11] addresses T3, Nucleotide-binding oligomerization domain-containing protein 2. Briefly: NOD2 signaling inhibitors, analog potency, SAR follow-up, cell-based, set 3 (AID 2799). It counts as functional.
Experiment [12] can be described thus: Shn3 3'UTR reporter inhibitors, dose response, cell-based, Clone20 osteoblasts, firefly luciferase, cherry-picked (AID 624132).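 Note: firefly luciferase luminescence from reporter carrying the Shn3 3'UTR in osteoblasts.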 It counts as functional.
The nature of experiment [13]: HepG2 cell cytotoxicity, dose response, cytotoxicity control for Shn3 inhibitor project, CellTiter-Glo, cherry-picked (AID 624134). The format is functional, cell-based.
Experiment [14] is described as follows: control 3'UTR Renilla luciferase suppression, dose response, counter-screen for Shn3 inhibitor project, cell-based, Clone20-Shn3RL, cherry-picked (AID 624133). The format is functional.
Experiment [15] deals with T4, Tyrosine-protein phosphatase non-receptor type 7 (Homo sapiens, UniProt P35236).
T4 sequence (P35236 whole entry): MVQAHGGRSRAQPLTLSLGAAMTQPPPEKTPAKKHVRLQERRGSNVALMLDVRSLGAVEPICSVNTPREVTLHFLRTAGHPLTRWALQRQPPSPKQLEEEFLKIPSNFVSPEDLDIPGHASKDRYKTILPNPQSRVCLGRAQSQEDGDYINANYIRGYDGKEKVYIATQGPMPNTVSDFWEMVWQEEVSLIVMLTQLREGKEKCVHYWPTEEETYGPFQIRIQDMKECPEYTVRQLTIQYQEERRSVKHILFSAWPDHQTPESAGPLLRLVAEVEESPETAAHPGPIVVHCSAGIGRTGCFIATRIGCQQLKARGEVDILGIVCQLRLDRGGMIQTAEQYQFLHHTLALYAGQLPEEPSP
The format is functional.

The target of experiment [16] is T5, Voltage-gated N-type calcium channel alpha-1B subunit/Amyloid beta A4 precursor protein-binding family A member 1 (Homo sapiens, UniProt Q00975+Q02410). The format is protein assay.
T5 sequence (Q00975 whole entry): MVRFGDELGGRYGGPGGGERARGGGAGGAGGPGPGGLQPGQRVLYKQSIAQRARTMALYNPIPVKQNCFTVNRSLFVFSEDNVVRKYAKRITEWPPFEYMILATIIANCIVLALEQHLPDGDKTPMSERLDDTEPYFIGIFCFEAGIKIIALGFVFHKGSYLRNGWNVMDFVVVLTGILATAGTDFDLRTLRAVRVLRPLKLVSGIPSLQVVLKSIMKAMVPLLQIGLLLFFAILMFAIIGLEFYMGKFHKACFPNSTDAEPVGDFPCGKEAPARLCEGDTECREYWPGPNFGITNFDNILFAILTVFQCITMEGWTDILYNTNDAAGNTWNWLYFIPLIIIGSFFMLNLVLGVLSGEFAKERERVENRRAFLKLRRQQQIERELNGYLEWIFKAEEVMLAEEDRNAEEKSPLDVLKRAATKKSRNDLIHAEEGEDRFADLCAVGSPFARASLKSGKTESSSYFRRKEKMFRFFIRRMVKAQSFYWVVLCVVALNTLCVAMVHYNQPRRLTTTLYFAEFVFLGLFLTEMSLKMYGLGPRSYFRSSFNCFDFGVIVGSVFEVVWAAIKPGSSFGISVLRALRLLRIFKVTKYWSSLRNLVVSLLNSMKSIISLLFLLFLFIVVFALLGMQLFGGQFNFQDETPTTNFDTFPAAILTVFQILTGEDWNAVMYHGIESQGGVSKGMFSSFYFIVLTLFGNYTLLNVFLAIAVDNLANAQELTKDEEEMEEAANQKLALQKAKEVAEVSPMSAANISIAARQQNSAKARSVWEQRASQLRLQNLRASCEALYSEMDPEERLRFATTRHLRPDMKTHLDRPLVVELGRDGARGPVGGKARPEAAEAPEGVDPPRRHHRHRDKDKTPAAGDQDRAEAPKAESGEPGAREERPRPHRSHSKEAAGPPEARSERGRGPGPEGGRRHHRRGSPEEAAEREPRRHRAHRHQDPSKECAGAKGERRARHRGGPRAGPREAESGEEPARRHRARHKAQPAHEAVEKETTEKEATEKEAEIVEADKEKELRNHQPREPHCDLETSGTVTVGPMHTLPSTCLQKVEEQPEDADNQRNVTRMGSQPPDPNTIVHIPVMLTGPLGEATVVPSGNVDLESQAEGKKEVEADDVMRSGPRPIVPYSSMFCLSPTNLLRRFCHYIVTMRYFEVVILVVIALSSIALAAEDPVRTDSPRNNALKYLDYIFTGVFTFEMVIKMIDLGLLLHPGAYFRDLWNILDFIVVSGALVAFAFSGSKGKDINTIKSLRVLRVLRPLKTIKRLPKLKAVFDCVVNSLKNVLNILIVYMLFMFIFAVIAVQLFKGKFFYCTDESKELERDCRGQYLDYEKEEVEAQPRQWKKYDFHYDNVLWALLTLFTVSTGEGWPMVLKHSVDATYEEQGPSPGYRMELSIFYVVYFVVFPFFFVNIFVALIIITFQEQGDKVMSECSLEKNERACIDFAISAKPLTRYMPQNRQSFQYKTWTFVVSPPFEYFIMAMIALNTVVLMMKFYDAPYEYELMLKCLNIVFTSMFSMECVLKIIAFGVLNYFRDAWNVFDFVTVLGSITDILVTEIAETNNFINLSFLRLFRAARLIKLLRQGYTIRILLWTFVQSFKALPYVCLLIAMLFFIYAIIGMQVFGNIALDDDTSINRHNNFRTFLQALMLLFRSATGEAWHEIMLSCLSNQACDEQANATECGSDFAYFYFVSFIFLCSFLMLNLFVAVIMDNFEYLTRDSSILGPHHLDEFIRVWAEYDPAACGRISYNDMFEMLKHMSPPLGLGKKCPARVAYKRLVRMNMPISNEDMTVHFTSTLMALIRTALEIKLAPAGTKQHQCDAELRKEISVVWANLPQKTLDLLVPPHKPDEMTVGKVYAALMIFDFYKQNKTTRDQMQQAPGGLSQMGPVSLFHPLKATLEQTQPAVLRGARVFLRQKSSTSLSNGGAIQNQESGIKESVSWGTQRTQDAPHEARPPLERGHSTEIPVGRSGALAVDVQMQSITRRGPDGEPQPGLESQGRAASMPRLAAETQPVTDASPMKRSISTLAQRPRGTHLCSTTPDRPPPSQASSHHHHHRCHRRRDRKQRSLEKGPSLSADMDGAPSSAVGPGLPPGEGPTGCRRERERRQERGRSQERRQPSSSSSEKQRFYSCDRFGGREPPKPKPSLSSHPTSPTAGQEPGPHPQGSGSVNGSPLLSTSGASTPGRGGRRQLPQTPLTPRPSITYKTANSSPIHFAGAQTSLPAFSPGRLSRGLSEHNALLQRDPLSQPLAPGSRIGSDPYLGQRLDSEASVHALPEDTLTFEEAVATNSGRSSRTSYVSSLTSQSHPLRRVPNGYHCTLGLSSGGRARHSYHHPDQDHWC
T5 sequence (Q02410 whole entry): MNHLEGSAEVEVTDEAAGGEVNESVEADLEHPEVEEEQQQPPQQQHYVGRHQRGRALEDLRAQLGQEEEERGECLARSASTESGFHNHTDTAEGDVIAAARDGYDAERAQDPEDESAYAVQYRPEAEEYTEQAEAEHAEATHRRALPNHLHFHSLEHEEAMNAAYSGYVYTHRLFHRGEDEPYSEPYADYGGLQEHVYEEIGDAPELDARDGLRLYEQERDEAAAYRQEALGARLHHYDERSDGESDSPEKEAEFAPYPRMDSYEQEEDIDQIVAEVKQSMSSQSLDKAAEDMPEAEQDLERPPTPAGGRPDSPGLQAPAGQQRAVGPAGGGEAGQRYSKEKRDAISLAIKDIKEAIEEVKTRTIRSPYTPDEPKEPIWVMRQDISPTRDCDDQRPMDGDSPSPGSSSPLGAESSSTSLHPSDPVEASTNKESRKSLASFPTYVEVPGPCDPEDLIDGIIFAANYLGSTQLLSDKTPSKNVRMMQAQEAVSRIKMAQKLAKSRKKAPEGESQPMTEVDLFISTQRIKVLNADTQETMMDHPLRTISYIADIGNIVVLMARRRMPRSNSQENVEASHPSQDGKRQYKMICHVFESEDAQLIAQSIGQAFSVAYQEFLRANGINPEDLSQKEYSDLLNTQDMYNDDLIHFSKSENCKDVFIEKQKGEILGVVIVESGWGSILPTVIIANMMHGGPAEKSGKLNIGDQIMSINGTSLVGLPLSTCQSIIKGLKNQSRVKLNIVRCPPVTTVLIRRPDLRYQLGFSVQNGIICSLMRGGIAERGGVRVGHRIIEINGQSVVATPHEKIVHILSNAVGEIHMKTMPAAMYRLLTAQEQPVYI
Experiment [17] addresses T5, Voltage-gated N-type calcium channel alpha-1B subunit/Amyloid beta A4 precursor protein-binding family A member 1. It counts as protein assay. This is another data set of the same source.
The target of experiment [18] is T6, Tyrosine-protein phosphatase non-receptor type 22 (Homo sapiens, UniProt Q9Y2R2).
T6 sequence (Q9Y2R2 whole entry): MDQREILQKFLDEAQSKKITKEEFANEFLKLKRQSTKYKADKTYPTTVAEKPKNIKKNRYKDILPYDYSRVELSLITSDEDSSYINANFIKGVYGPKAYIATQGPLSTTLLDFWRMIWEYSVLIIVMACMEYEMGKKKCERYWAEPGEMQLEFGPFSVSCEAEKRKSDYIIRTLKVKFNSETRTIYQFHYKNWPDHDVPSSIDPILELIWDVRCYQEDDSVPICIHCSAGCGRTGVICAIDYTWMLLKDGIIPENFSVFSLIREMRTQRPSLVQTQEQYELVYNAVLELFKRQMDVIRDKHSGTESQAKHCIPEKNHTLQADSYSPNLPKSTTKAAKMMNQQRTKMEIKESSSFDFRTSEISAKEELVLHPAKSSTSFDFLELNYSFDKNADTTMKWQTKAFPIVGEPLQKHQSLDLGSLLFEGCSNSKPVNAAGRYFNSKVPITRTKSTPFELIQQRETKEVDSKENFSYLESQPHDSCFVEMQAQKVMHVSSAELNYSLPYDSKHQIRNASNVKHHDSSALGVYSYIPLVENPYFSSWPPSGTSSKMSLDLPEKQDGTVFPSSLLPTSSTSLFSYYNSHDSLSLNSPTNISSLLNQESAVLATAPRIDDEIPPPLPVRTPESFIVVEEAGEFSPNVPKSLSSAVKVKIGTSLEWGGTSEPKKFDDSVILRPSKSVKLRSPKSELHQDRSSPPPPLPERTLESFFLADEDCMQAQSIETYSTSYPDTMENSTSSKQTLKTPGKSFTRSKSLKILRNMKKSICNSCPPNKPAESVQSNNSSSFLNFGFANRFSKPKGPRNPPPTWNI
The format is functional.

Experiment [19] has as its target T6, Tyrosine-protein phosphatase non-receptor type 22. The format is functional. The source holds these as a separate data set.
Experiment [20] concerns the target DNA dC->dU-editing enzyme APOBEC-3G (Homo sapiens, UniProt Q9HC16). As to the kind of experiment: Dose Response confirmation of small molecule APOBEC3G DNA Deaminase Inhibitors via a fluorescence-based single-stranded DNA deaminase assay. [Related pubchem assays (depositor defined):AID493012, AID493028]. It counts as functional.

This note sets out measurements from ChEMBL document CHEMBL1201862, “PubChem BioAssay data set” (2004).

Active and inactive are the calls of the source. A value given as a limit tells only on which side of the number the result lay.

G-protein coupled receptor 55, sequence (Q9Y2T6 whole entry, the tested form may be a part): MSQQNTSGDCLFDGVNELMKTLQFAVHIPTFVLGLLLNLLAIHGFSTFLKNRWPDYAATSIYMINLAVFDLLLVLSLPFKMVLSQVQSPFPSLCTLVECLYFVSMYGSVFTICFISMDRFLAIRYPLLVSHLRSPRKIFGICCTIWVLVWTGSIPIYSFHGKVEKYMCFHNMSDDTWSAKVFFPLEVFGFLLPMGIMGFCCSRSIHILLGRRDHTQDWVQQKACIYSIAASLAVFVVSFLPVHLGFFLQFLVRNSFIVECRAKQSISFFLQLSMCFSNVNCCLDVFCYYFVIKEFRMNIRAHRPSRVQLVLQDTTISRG

Regarding `O=C(Nc1ccc2nc(SCc3ccc(Cl)c(Cl)c3)sc2c1)c1ccccc1Br`, in experiment [1], the IC50 is > 32 µM (inactive).
In the case of `C/C(Cl)=C\Cn1c(NCCc2ccccc2)nc2c1c(=O)n(C)c(=O)n2C`, the IC50 was > 25 µM (inactive) in experiment [2]; > 25 µM (inactive) in experiment [3]; > 25 µM (inactive) in experiment [4]; 2.5 µM (active) in experiment [5]; > 20 µM (inactive) in experiment [6]; 2.61 µM (active) in experiment [7]. In addition, the 50% inhibitory concentration (IC50) in [8] was 4.13 µM (active); in experiment [9], 5.66 µM (active); in experiment [10], > 20 µM (inactive); in experiment [11], 3.05 µM (active). In addition, the half-maximal activity concentration (AC50) in experiment [12] is 0.283 µM (active); in [13] it was 59.4 µM (active); in [14] it was 0.493 µM (active).
Take `COc1ccc(NC(=O)CN2C(=O)/C(=C3\SC(=S)N(CCC(=O)O)C3=O)c3ccccc32)cc1`: the IC50 was 6.84 µM (active) in experiment [15]; 14.5 µM (active) in [16]; > 50 µM (inactive) in experiment [17]; 6.11 µM (active) in [18]; 13.8 µM (active) in [19]; 40.9 µM (active) in experiment [20].
